In US9428791B2, “Probes of RNA structure and methods for using the same” (The Board of Trustees of the Leland Stanford Junior …, priority 2012, dated 2016):
Like-named read-outs stand apart in the source and are kept apart here.

What was measured:
human 5S rRNA = test: Acylation of 5S rRNA in vitro (SHAPE)
Procedure: Acylation of RNA, in vitro. In a typical in vitro modification protocol, 6 μg total RNA is heated in metal-free water for two minutes at 95° C. The RNA is then flash-cooled on ice. The RNA 3× SHAPE buffer (333 mM HEPES, pH 8.0, 20 mM MgCl2, 333 mM NaCl) is added and the RNA allowed to equilibrate at 37° C. for ten minutes. To this mixture, 1 μL of 10× electrophile stock in DMSO (+) or DMSO (−) is added. The reaction is permitted to continue until the desired time. Reactions are quenched with 60 μL of DMS stop solution (0.5 M β-mercaptoethanol, 0.75 M Na.acetate, pH 5.5). Reactions are extracted once with acid phenol:chloroform (pH 4.5±0.2) and twice with chloroform. RNA is precipitated with 40 μL of 3M sodium acetate buffer (pH 5.2) and 1 μL of glycogen (20 ug/uL).
(§1) Extensions are performed for ten minutes.

Solubility = type: physicochemical
ATP [1] = details: see Weeks et al., J. Am. Chem. Soc. 127, 4223-4231, 2005; cited from earlier work
HOTAIR = test: Secondary structure probing of in vitro transcribed HOTAIR RNA; details: 5′ end of HOTAIR
Procedure: ABI-1 as a probe of RNA secondary structure. To evaluate the compound's ability to modify RNA at conformationally flexible positions ABI-1 was tested in comparison to NMIA. […] After incubation, the RNA was extracted and precipitated with ethanol.
ABI-1 Reversible Modification and Cell-Permeability. […] FIG. 15A.

ATP [2] = test: ATP gel shift acylation
From the text: ATP gel shift. […] Chem. Soc. 127, 4223-4231, (2005).

5S rRNA [3] = type: cell-based; details: cultured human cancer cells
Procedure: (§2) Cells are then spun down and decanted. […] Extensions are performed for ten minutes.

[4] = test system: U1 snRNA, U2 snRNA, SNORD3A; test: Acylation of nuclear RNAs in HeLa S3 cells; type: cell-based, Homo sapiens; details: HeLa S3, 200 mM final, thirty minutes
Procedure: Cells are then spun down and decanted. […] NO: 12). […] NO:7) (SEQ ID NO:13). […] NO:14). […] Extensions are performed for ten minutes.

5S rRNA [5] = test: Acylation of RNA in yeast cells; type: cell-based, Saccharomyces cerevisiae
Procedure: Acylation of RNA in yeast cells. […] Yeast cells are grown to an OD600 of 1.0 at 30° C. in YPD medium. Cells are spun down at 4000×g and decanted. […] Cells are then spun down, decanted, and flash frozen in liquid nitrogen. Frozen pellets are resuspended in 500 uL of 50 mM NaOAc pH5.0, 10 mM EDTA pH 8.0 and 100 uL of 10% SDS. […] Cells are incubated at 65° C. for 1 minute. The freeze thaw cycle is repeated three times.
as §1

[6] = Hydrolysis of NAI and FAI in aqueous buffer (absorbance decay); type: physicochemical; details: 100 mM HEPES, 100 mM NaCl, 10 mM MgSO4, pH 8.0; fit f=y0+a*exp(−b*x); in 1/min
Procedure: Hydrolysis of NAI and FAI. Hydrolysis of NAI and FAI is monitored by adding 1.5 μL of a 100 mM solution of either NAI or FAI in spectroscopic grade DMF to 598.5 μL of buffer (100 mM HEPES, 100 mM NaCl, 10 mM MgSO4, pH 8.0) and monitoring the decrease in absorbance at 265 nm (NAI) or 275 nm (FAI). Three parameter pseudo-first order exponential decay kinetics are fit using OriginPro 8.0 software using the equation: f=y0+a*exp(−b*x)

5S rRNA [7] = type: cell-based, Drosophila melanogaster; details: Drosophila S2 cells
Procedure: as §2

5S rRNA [8] = test: Acylation of RNA in E. coli cells; type: cell-based, Escherichia coli
Procedure: Acylation of RNA in E. coli cells. […] E. coli cells are grown to an OD600 of 0.25 at 37° C. in […]. Cells are spun down at 4000×g and decanted. […] Cells are resuspended in a final volume of a fresh solution of 800 μl 0.5 mg/ml lysozyme, TE pH 8.0. 80 μl of 10% SDS is added to the mixture and the slurry is placed at 64° C. for 1-2 min. After incubation add 88 μl 1 M NaOAc, pH5.2 is added. The samples are added to an equal volume (1 ml) of water-saturated phenol (pH <7.0) and incubated at 64° C. for 6 min. The resultant slurry is spun at max speed (14,000 rpm) for 10 min at 4° C. […] Reverse transcription primer used for E. coil 5S rRNA: 5′-[…] (SEQ ID NO: 10).
as §1

5S rRNA [9] = type: cell-based, mouse
Procedure: as §2

ATP [10] = test system: ATP
Procedure: Briefly, 10,000 cpm/uL of radiolabeled ATP is incubated with increasing amounts of NAI or FAI (10% final volume) in 100 mM HEPES buffer, pH 8.0, containing 6 mM MgCl2, 100 mM NaCl. Reactions are stopped by addition of an equal volume of Gel Loading Buffer 11 (Ambion, Inc.) and placed on ice. […] Single adduct reaction rates and percentages are calculated by integrating bands (Image Quant, IM Support) and fit to a single exponential.

SMILES | Sites of modification mapped to predicted secondary structure (human 5S rRNA) | maximum solubility (Solubility) [mM] | Retained reactivity in aqueous buffer (ATP [1]) | Mapping of RNA secondary structure (HOTAIR) | Retained reactivity with ATP in aqueous buffer (ATP [2]) | 5S rRNA modification in cells (5S rRNA [3]) | Modification of nuclear, lower abundant RNAs [4] | 5S rRNA modification in cells (5S rRNA [5]) | b (pseudo-first order exponential decay constant of hydrolysis) [6] | 5S rRNA modification in cells (5S rRNA [7]) | Cell attachment, morphology and trypan blue staining (V6.5 mESCs) | 5S rRNA modification in cells (5S rRNA [8]) | Time at which modification signal begins to plateau (5S rRNA [9]; 100 mM NAI, murine ESCs) [min] | Time to 5S rRNA modification with suitable signal-to-noise ratio (5S rRNA [9]; 100 mM NAI, murine ESCs) | 5S rRNA modification in cells (reverse transcription blocks) (5S rRNA [9]; live mouse ESC, aqueous buffer) | Extent of modification in cells, comparison of probes (5S rRNA [9]; same concentration) | Result (qualitative: reactivity toward ATP, hydrolysis, solubility) (ATP [10])
Cn1c(=O)oc(=O)c2ccccc21 [NMIA, N-methylisotoic anhydride] | map to residues that are predicted to be flexible | 13 | mostly quenched after thirty minutes | successfully mapped the predicted secondary structure of the 5′ end of HOTAIR |  |  |  |  |  |  |  |  |  |  |  |  | 
Cc1ncccc1C(=O)n1ccnc1 [NAI, 2-methylnicotinic acid imidizolide] | map to residues that are predicted to be flexible |  |  |  | retain reactivity with ATP at 120 minutes | modifies 5S rRNA | modifies nuclear, lower abundant RNAs | modifies 5S rRNA | .020476 | modifies 5S rRNA | remained attached to tissue culture vessel, appeared morphologically normal and unstained by trypan blue | modifies 5S rRNA | ≤ 15 | in as little as one minute | caused blocks in subsequent reverse transcription | greater extent of modification than FAI | 
N#CC(=O)OCc1ccccc1 |  |  |  |  |  |  |  |  |  |  |  |  |  |  |  |  | Too Reactive, High Hydrolysis
